Measured values reported in patent US6565830B1, “DTPA monoamides, pharmaceutical agents containing these compounds, their use and process for their production” (Schering Aktiengesellschaft, priority 1990, dated 2003).

Legend:
Brown-Pearce tumor = test: In vivo NMR diagnosis (MRI) after intravenous administration, rat with Brown-Pearce tumor in the liver; conditions: i.v. 0.1 mmol of Gd/kg
Description: A cell suspension of the Brown-Pearce tumor was injected in the liver in a test animal (rat, strain lew/mol, female, 155 g) two weeks before the test. In the method used, about 2 weeks were required until the tumor had reached the size of 0.5-1 cm^3 desired for the test.
For the test, the animal was anesthetized (Rompun+Ketavet) and then a catheter was placed in the caudal vein for the administration of the contrast medium.
The imaging took place in an MRI experimental device of the General Electric company (field strength 2 teslas). The first image was made without contrast media with a T1-weighted spin echo sequence (TR=400 msec, TE=20 msec, layer thickness 3 mm).

liver = test: In vivo NMR diagnosis (MRI) after oral administration, rat; conditions: p.o. 0.5 mmol of Gd/kg
Description: This finding agrees very well with the pharmacokinetic data.

human serum albumin = human serum albumin (Homo sapiens, UniProt P02768); test: Association with human serum albumin in aqueous solution; type: binding
[1] = cited from earlier work

human serum albumin, sequence (P02768 25-609): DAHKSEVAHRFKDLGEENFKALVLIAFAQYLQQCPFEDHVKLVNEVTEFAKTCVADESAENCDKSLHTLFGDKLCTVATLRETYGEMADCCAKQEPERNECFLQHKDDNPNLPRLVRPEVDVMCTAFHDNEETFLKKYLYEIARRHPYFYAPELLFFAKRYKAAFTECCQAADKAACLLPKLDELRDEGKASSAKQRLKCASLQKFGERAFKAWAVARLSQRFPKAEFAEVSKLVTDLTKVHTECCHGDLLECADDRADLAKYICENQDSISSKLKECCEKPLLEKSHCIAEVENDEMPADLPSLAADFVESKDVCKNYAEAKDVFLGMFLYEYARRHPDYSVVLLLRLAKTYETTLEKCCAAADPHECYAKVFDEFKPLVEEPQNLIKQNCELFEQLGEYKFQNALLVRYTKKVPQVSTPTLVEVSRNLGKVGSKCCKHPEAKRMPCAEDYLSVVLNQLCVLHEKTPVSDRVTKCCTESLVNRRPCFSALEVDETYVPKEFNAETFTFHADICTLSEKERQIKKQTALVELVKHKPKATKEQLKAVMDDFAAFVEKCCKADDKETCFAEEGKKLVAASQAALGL

With `O=C(O)CCCCCCCCCCNC(=O)CN(CCN(CCN(CC(=O)O)CC(=O)O)CC(=O)O)CC(=O)O.[Gd]` [Example 1b, Gadolinium complex of 3,6-bis(carboxymethyl)-9-(10-carboxydecylcarbamoylmethyl)-3,6,9-triazaundecanedioic acid] the “secretion in the stomach” value (Brown-Pearce tumor) was “secreted in the stomach”, the “distribution of contrast medium between liver and tumor” value (Brown-Pearce tumor; 60 minutes) was “concentrated in the liver to a great extent, but, not in the tumor” and the “enhancement of the stomach in MRI image” value (Brown-Pearce tumor; 60 minutes (image no. 2)) was “very strong enhancement”. The “appearance of liver tumor in MRI image” value (Brown-Pearce tumor; 60 minutes after administration) was “considerably darker in comparison with the surrounding liver tissue”, the “signal intensity of liver parenchyma in MRI image” value (Brown-Pearce tumor; 60 minutes after administration, T1-weighted spin echo, 2 teslas) was “very bright” and the “resorption after oral administration” value (liver) was “resorbed in the small intestine after oral administration and is immediately taken up again for the most part by the liver”. The “signal in the liver in MRI image” value (liver; 45 minutes after administration (image 3)) was “slight increase in the signal in the liver” and the “enhancement in the liver in MRI image” value (liver; 180 minutes after administration (image 4)) was “marked enhancement”.

In the case of `CCCCCCC(CCCCCCCCCCC(=O)O)NC(=O)CN(CCN(CCN(CC(=O)O)CC(=O)O)CC(=O)O)CC(=O)O.[Gd]` (centres unmarked) [Example 4b, Gadolinium complex of 3,6-bis(carboxymethyl)-9-(11-carboxy-1-n-hexyl-undecylcarbamoylmethyl)-3,6,9-triazaundecanedioic acid], the “association with human serum albumin” value (human serum albumin) is reported as “forms associates”.

For `CNC[C@H](O)[C@@H](O)[C@H](O)[C@H](O)CO.CNC[C@H](O)[C@@H](O)[C@H](O)[C@H](O)CO.O=C([O-])CN(CCN(CC(=O)[O-])CC(=O)O)CCN(CC(=O)[O-])CC(=O)O.[Gd+3]` [Magnevist, gadolinium(III) complex of diethylenetriaminepentaacetic acid], the “distribution after intravenous injection” value [1] is listed as “spreads extracellularly” and the “route of elimination after intravenous injection” value [1] is listed as “eliminated by glomerular secretion through the kidneys”.
